In PubChem BioAssay (NCI):
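Interpolation was linear, between the two tested concentrations surrounding the appropriate level; five concentrations were tested over 48 hours in 96-well plates. TGI marks complete inhibition of growth.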

Tests used:
Assay in all cases: NCI tumour cell line growth inhibition, 48 h
[1] = test system: NCI-H23 lung
[2] = test system: T-47D breast
[3] = test system: MALME-3M melanoma
[4] = test system: MDA-MB-435
[5] = test system: RXF 393 renal
[6] = test system: MDA-MB-231 breast
[7] = test system: SNB-75 CNS
[8] = test system: BT-549 breast
[9] = test system: MOLT-4 leukemia
[10] = test system: SK-MEL-5 melanoma
[11] = test system: NCI/ADR-RES ovarian
[12] = test system: UACC-257 melanoma
[13] = test system: MDA-N
[14] = test system: KM12 colon
[15] = test system: SN12C renal
[16] = test system: SF-268 CNS
[17] = test system: UO-31 renal
[18] = test system: M14 melanoma
[19] = test system: U251 CNS
[20] = test system: SR leukemia

| SMILES | TGI [1] [µM] | TGI [2] [µM] | TGI [3] [µM] | TGI [4] [µM] | TGI [5] [µM] | TGI [6] [µM] | TGI [7] [µM] | TGI [8] [µM] | TGI [9] [µM] | TGI [10] [µM] | TGI [11] [µM] | TGI [12] [µM] | TGI [13] [µM] | TGI [14] [µM] | TGI [15] [µM] | TGI [16] [µM] | TGI [17] [µM] | TGI [18] [µM] | TGI [19] [µM] | TGI [20] [µM] |
| --- | --- | --- | --- | --- | --- | --- | --- | --- | --- | --- | --- | --- | --- | --- | --- | --- | --- | --- | --- | --- |
| COP(=O)(/C=C/c1cc(C(=O)OCc2ccccc2)n(S(=O)(=O)c2ccccc2)c1)OC | > 100 | > 100 | > 100 | > 100 | > 100 | > 100 | > 100 | > 100 | > 100 | > 100 | > 100 | > 100 | > 100 | > 100 | > 100 | > 100 | > 100 | > 100 | > 100 | – |
| N#Cc1c(-c2ccccc2)/c(=C\Nc2ccc(F)cc2)c(=O)n2c1nc1ccccc12 | > 100 | > 100 | 52.7 | > 100 | 52.3 | > 100 | > 100 | > 100 | – | > 100 | 64.9 | > 100 | 57.9 | > 100 | 82.9 | > 100 | 45.6 | 40.4 | > 100 | – |
| NS(=O)(=O)c1cc2c(cc1Cl)NC(CCC(=O)O)=NS2(=O)=O | > 100 | > 100 | > 100 | > 100 | > 100 | > 100 | > 100 | > 100 | – | > 100 | > 100 | > 100 | > 100 | > 100 | > 100 | > 100 | > 100 | > 100 | > 100 | – |
| Cc1nc(N)c(N2CCN([N+](=O)[O-])CC2)c(=O)[nH]1 | > 100 | > 100 | > 100 | > 100 | – | > 100 | > 100 | > 100 | > 100 | – | > 100 | > 100 | > 100 | > 100 | > 100 | > 100 | > 100 | > 100 | > 100 | > 100 |
| O=C1c2ccccc2-c2c1c(-c1ccc(F)cc1)nc1ccc3ccccc3c21 | > 100 | > 100 | > 100 | > 100 | > 100 | > 100 | > 100 | > 100 | > 100 | – | > 100 | > 100 | > 100 | > 100 | > 100 | > 100 | > 100 | > 100 | > 100 | – |
| COc1cccc2c1OC1(C=C2)Oc2ccccc2C(=O)N1C (stereo unspecified) | > 100 | 99 | – | 59.8 | > 100 | > 100 | 74.1 | 88.2 | 81.4 | > 100 | 26.9 | > 100 | 44.9 | > 100 | > 100 | > 100 | > 100 | > 100 | > 100 | 54.2 |
| O=C(O)CCC(=O)OC1N=C(c2ccccc2Cl)c2cc([N+](=O)[O-])ccc2NC1=O (stereo unspecified) | > 100 | > 100 | > 100 | > 100 | > 100 | > 100 | > 100 | > 100 | – | – | > 100 | > 100 | > 100 | > 100 | > 100 | > 100 | > 100 | > 100 | > 100 | – |
| COc1cccc(CCCNC(=O)Cc2cc(OC)c(OC)cc2CO)c1 | > 100 | > 100 | > 100 | > 100 | – | > 100 | > 100 | > 100 | > 100 | > 100 | > 100 | > 100 | > 100 | > 100 | > 100 | – | > 100 | > 100 | > 100 | > 100 |
| O=c1[nH]c(=O)n(C2OC(CO)C(O)C2O)c2nc(-c3ccc(-c4ccccc4)cc3)cnc12 (stereo unspecified) | > 100 | > 100 | > 100 | > 100 | > 100 | > 100 | > 100 | > 100 | > 100 | > 100 | > 100 | > 100 | > 100 | > 100 | > 100 | > 100 | > 100 | > 100 | > 100 | – |
| CCNC(=O)Cc1nc2c(N)ncnc2n1C1OC(CO)C(O)C1O (stereo unspecified) | > 100 | > 100 | > 100 | > 100 | – | > 100 | – | > 100 | > 100 | > 100 | > 100 | > 100 | > 100 | > 100 | > 100 | > 100 | > 100 | > 100 | > 100 | > 100 |
| CC(=O)Nc1nc(C#N)[nH]c1C#N | > 100 | > 100 | > 100 | > 100 | > 100 | > 100 | > 100 | > 100 | > 100 | > 100 | > 100 | > 100 | > 100 | > 100 | > 100 | > 100 | > 100 | > 100 | > 100 | – |
